Read-outs that look alike come from different tables or passages of the source.
Legend:
usual BChE [1] = target: T1, usual BChE (Homo sapiens, UniProt P06276); assay: biochemical; assay type: biochemical; settings: for inhibition potency higher than other compounds of the same group: usual BChE, versus other resorcinol-, catechol- or saligenin-based compounds
T1 construct: Human native serum was used as a source of BChE; from tissue; host or cells: human serum (donor, IMROH Zagreb)
Method: (§1) ATCh was used as a substrate for AChE and PTCh as a substrate for BChE. The reaction mixture contained DTNB (final concentration 0.3 mM), buffer, enzyme suspension, inhibitor (0.5–10 mM) and ATCh or PTCh (0.025–1.0 mM). Inhibition of enzymes was determined by measuring the decrease in enzyme activity in the presence of inhibitors.
(§2) The dissociation constant for an enzyme–inhibitor complex K(I) was evaluated from the impact of substrate concentrations [S] on the degree of inhibition applying the Hunter–Downs equation[17]^,[39]: Ki,app=vi/v0-vi·[I]=K(I)+K(I)/K(S)·[S] where Ki,app is an apparent enzyme-reversible inhibitor complex dissociation constant obtained at a given substrate concentration [S] in the presence of inhibitor concentration [I] and calculated from the enzyme activities v0 and vi measured without inhibitor and in the presence of inhibitor concentration [I], respectively. K(I) is the enzyme-reversible inhibitor complex dissociation constant and can stand for a complex formed at the catalytic site or for a complex formed at the peripheral site of the enzyme. K(S) is the enzyme-substrate dissociation constant that could be approximated to the Michaelis constant or to the enzyme-substrate dissociation constant when two molecules of the substrate are bound to the enzyme.

human AChE [2] = target: T2, human AChE (Homo sapiens, UniProt P22303); assay: biochemical; assay type: biochemical
T2 sequence (P22303 32-614): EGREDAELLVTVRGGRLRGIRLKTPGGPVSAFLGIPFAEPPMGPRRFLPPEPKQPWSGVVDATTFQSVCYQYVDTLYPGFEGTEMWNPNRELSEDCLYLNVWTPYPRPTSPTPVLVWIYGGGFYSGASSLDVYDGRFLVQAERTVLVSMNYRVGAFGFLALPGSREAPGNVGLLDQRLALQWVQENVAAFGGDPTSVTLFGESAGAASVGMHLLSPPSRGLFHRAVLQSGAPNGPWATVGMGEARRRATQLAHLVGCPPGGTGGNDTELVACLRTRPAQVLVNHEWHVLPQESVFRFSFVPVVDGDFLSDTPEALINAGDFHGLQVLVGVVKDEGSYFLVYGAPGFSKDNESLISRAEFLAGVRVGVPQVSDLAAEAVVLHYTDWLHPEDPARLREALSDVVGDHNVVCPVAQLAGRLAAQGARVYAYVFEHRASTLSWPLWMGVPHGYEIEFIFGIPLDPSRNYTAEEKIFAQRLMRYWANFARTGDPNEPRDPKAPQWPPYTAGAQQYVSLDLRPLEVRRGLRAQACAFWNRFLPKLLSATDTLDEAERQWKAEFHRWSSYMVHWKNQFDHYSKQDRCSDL
Method: as §1, §2

fluoride-resistant BChE [3] = target: T3, fluoride-resistant BChE (Homo sapiens, UniProt P06276); settings: substrate PTCh, K(I) ± SE
T3 sequence (P06276 29-602, change not shown): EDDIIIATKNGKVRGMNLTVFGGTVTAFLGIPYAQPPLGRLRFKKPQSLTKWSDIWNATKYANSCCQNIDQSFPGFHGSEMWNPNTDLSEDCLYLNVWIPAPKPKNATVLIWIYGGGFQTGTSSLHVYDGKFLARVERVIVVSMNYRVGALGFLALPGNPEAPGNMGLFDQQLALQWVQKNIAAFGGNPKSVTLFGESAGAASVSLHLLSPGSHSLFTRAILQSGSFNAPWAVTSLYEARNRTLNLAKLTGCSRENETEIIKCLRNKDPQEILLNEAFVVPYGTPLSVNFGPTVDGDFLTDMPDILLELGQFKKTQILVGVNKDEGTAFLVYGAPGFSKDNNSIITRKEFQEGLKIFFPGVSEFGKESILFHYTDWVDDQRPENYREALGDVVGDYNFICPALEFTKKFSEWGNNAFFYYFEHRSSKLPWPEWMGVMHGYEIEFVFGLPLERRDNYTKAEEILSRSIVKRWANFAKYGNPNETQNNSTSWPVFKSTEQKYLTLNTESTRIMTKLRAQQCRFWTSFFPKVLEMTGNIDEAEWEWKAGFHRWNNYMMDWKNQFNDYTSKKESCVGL
Method: as §1, §2

atypical BChE [4] = target: T4, atypical BChE (Homo sapiens, UniProt P06276, D98G); assay: Reversible inhibition of atypical BChE (Ellman method, Hunter–Downs evaluation); assay type: biochemical
T4 construct: Human native serum was used as a source of BChE; from tissue; host or cells: human serum
T4 sequence (P06276 29-602 D98G): as the sequence (P06276 29-602, change not shown) above, with D70G counted along it
Method: as §1, §2

β-adrenoceptor = settings: more potent than (S)-enantiomer; cited from earlier work
usual BChE [5] = target: T1, usual BChE; settings: K(I) ± SE, cited from earlier work
human AChE [6] = target: T2, human AChE; settings: K(I) ± SE; cited from earlier work
fluoride-resistant BChE [7] = target: T3, fluoride-resistant BChE; settings: K(I) ± SE; cited from earlier work
atypical BChE [8] = target: T4, atypical BChE; settings: K(I) ± SE; cited from earlier work
[9] = enantiomers, substrate PTCh, pH 7.4, 25 °C, K(I) ± SE, read-out: K(I)
[10] = enantiomers, substrate ATCh, pH 7.4, 25 °C, K(I) ± SE, read-out: K(I)
[11] = racemate, 0.1 M phosphate buffer pH 7.4, 25 °C

T1 sequence (P06276 29-602): as the sequence (P06276 29-602, change not shown) above

CC(C)NC[C@H](O)c1ccc(O)c(O)c1 [(R)-isoproterenol]
Ki (usual BChE [1]; [9]): 810 ± 130 µM | Ki (human AChE [2]; [10]): 2000 ± 500 µM | Ki (fluoride-resistant BChE [3]; enantiomers, pH 7.4, 25 °C): 1400 ± 200 µM | Ki (atypical BChE [4]; [9]): 1400 ± 100 µM

CC(C)(C)NC[C@H](O)c1ccc(O)c(CO)c1 [(R)-salbutamol]
Ki (usual BChE [1]; [9]): 190 ± 40 µM | Ki (human AChE [2]; [10]): 4000 ± 300 µM | Ki (fluoride-resistant BChE [3]; enantiomers, pH 7.4, 25 °C): 300 ± 60 µM | Ki (atypical BChE [4]; [9]): 2300 ± 200 µM | potency as β-adrenoceptor agonist relative to (S)-enantiomer (β-adrenoceptor): approximately 80 times

OCc1cc([C@@H](O)CNCCCCCCOCCCCc2ccccc2)ccc1O [(R)-salmeterol]
Ki (usual BChE [1]; [9]): 15 ± 1 µM | Ki (human AChE [2]; [10]): 33 ± 3 µM | Ki (fluoride-resistant BChE [3]; enantiomers, pH 7.4, 25 °C): 31 ± 4 µM | Ki (atypical BChE [4]; [9]): 71 ± 19 µM

CC(C)(C)NC[C@H](O)c1cc(O)cc(O)c1 [(R)-terbutaline]
Ki (usual BChE [1]; [9]): 110 ± 30 µM | stereoselectivity: preference for (R) enantiomer over racemate (human AChE [2]; AChE, K(I) racemate versus (R) enantiomer): 2 fold | Ki (human AChE [2]; [10]): 2000 ± 300 µM | Ki (fluoride-resistant BChE [3]; enantiomers, pH 7.4, 25 °C): 220 ± 50 µM | stereoselectivity: preference for (R) enantiomer over racemate (atypical BChE [4]; atypical BChE, K(I) racemate versus (R) enantiomer): 3 fold | Ki (atypical BChE [4]; [9]): 1000 ± 100 µM

CC(C)(C)NC[C@@H](O)c1ccc(O)c(CO)c1 [(S)-salbutamol]
Ki (usual BChE [1]; [9]): 310 ± 50 µM | Ki (human AChE [2]; [10]): 1800 ± 100 µM | Ki (fluoride-resistant BChE [3]; enantiomers, pH 7.4, 25 °C): 300 ± 40 µM | Ki (atypical BChE [4]; [9]): 1500 ± 200 µM

OCc1cc([C@H](O)CNCCCCCCOCCCCc2ccccc2)ccc1O [(S)-salmeterol]
Ki (usual BChE [1]; [9]): 15 ± 1 µM | Ki (human AChE [2]; [10]): 28 ± 6 µM | Ki (fluoride-resistant BChE [3]; enantiomers, pH 7.4, 25 °C): 20 ± 3 µM | Ki (atypical BChE [4]; [9]): 67 ± 13 µM

CNC[C@H](O)c1ccc(O)c(O)c1 [Epinephrine]
Ki (usual BChE [1]): 3700 ± 1200 µM | selectivity: inhibition of usual BChE more potent than AChE (ratio of K(I) constants) (usual BChE [1]): lowest selectivity | Ki (human AChE [2]): 6400 ± 1100 µM | Ki (fluoride-resistant BChE [3]; [11]): 3800 ± 1500 µM | Ki (atypical BChE [4]; read-out: K(I)): 1600 ± 1000 µM

CC(Cc1ccc(O)cc1)NCC(O)c1cc(O)cc(O)c1 (centres unmarked) [Fenoterol]
Ki (usual BChE [1]): 24 ± 1 µM | Ki (human AChE [2]): 860 ± 50 µM | Ki (fluoride-resistant BChE [3]; [11]): 61 ± 17 µM | Ki (atypical BChE [4]): 630 ± 30 µM

CCC(NC(C)C)C(O)c1ccc(O)c(O)c1 (centres unmarked) [Isoetharine]
Ki (usual BChE [1]; read-out: K(I)): 31 ± 3 µM | inhibition potency higher than other compounds of the same group (usual BChE [1]): ≤ 120 times | higher inhibition potency (human AChE [2]; AChE, compared to isoproterenol): 12 fold | Ki (human AChE [2]; read-out: K(I)): 210 ± 40 µM | Ki (fluoride-resistant BChE [3]; [11]): 86 ± 4 µM | Ki (atypical BChE [4]): 260 ± 50 µM

CC(C)NCC(O)c1ccc(O)c(O)c1 (centres unmarked) [Isoproterenol]
Ki (usual BChE [5]; read-out: K(I)): 470 ± 210 µM | increase in inhibition potency (human AChE [2]; AChE, compared to epinephrine): 2 fold | Ki (human AChE [6]): 2500 ± 1000 µM | Ki (fluoride-resistant BChE [7]): 990 ± 120 µM | Ki (atypical BChE [8]): 1600 ± 300 µM

CC(C)NCC(O)c1cc(O)cc(O)c1 (centres unmarked) [Metaproterenol]
Ki (usual BChE [5]): 550 ± 110 µM | Ki (fluoride-resistant BChE [7]): 870 ± 180 µM | Ki (atypical BChE [8]): 6100 ± 700 µM

CC(C)(C)NCC(O)c1ccc(O)c(CO)c1 (centres unmarked) [Salbutamol]
Ki (usual BChE [1]): 71 ± 6 µM | selectivity: inhibition of usual BChE more potent than AChE (ratio of K(I) constants) (usual BChE [1]): 28 times | Ki (human AChE [2]): 2000 ± 200 µM | higher inhibition potency (human AChE [2]; AChE, compared to terbutaline): two times | Ki (fluoride-resistant BChE [3]; [11]): 190 ± 20 µM | Ki (atypical BChE [4]): 1400 ± 200 µM

OCc1cc(C(O)CNCCCCCCOCCCCc2ccccc2)ccc1O (centres unmarked) [Salmeterol]
Ki (usual BChE [1]): 13 ± 1 µM | selectivity: inhibition of usual BChE more potent than AChE (ratio of K(I) constants) (usual BChE [1]): two times | inhibition potency higher than other compounds of the same group (usual BChE [1]): ≤ 5.5 times | Ki (human AChE [2]): 30 ± 2 µM | increase in inhibition potency (human AChE [2]; AChE, salmeterol versus salbutamol): 67 fold | Ki (fluoride-resistant BChE [3]; [11]): 9.8 ± 2.3 µM | Ki (atypical BChE [4]): 86 ± 18 µM

CC(C)(C)NCC(O)c1cc(O)cc(O)c1 (centres unmarked) [Terbutaline]
Ki (usual BChE [5]): 180 ± 150 µM | selectivity: inhibition of usual BChE more potent than AChE (ratio of K(I) constants) (usual BChE [1]): 27 times | Ki (human AChE [2]; read-out: K(I)): 4800 ± 200 µM | Ki (fluoride-resistant BChE [7]): 300 ± 320 µM | Ki (atypical BChE [8]): 3300 ± 700 µM

(R)-epinephrine
Ki (usual BChE [1]; [9]): 4700 ± 1800 µM | Ki (human AChE [2]; [10]): 3200 ± 400 µM | Ki (atypical BChE [4]; [9]): 12000 ± 2000 µM
